Values quoted from earlier work in US20110287437A1, “ASSAYS TO PREDICT CARDIOTOXICITY” (priority 2010, published 2011).

Assays:
[1] = assessment from public literature and internal data; training set N=19
[2] = treatment of patients; prescribing information

Row | Compound | Cardiotoxicity [1] | Cardiotoxicity / adverse cardiac effects reported [2]
1 | COc1ccc2c(O[C@@H]3C[C@H]4C(=O)N[C@]5(C(=O)O)C[C@H]5/C=C\CCCCC[C@H](NC(=O)OC5CCCC5)C(=O)N4C3)cc(-c3csc(NC(C)C)n3)nc2c1 [BILN 2061] | Positive | –
2 | CS(=O)(=O)CCNCc1ccc(-c2ccc3ncnc(Nc4ccc(OCc5cccc(F)c5)c(Cl)c4)c3c2)o1 [Tykerb] | Negative | –
3 | Cc1cn(-c2cc(NC(=O)c3ccc(C)c(Nc4nccc(-c5cccnc5)n4)c3)cc(C(F)(F)F)c2)cn1 [Nilotinib] | Positive | –
4 | COc1cc2ncnc(Nc3ccc(F)c(Cl)c3)c2cc1OCCCN1CCOCC1 [Iressa] | Negative | –
5 | CCN(CC)CCNC(=O)c1c(C)[nH]c(/C=C2\C(=O)Nc3ccc(F)cc32)c1C [Sutent, sunitinib] | Positive | mentioned in the prescribing information
6 | CNC(=O)c1cc(Oc2ccc(NC(=O)Nc3ccc(Cl)c(C(F)(F)F)c3)cc2)ccn1 [Nexavar, sorafenib] | Positive | mentioned in the prescribing information
7 | C#Cc1cccc(Nc2ncnc3cc(OCCOC)c(OCCOC)cc23)c1 [Tarceva] | Negative | –
8 | CO[C@H]1C[C@@H]2CC[C@@H](C)[C@@](O)(O2)C(=O)C(=O)N2CCCC[C@H]2C(=O)O[C@H]([C@H](C)C[C@@H]2CC[C@@H](OCCO)[C@H](OC)C2)CC(=O)[C@H](C)/C=C(\C)[C@@H](O)[C@@H](OC)C(=O)[C@H](C)C[C@H](C)/C=C/C=C/C=C/1C [Everolimus] | Positive | –
9 | bevacizumab: bevacizumab (Avastin) | – | mentioned in the prescribing information
10 | COc1cc2c(Nc3ccc(Br)cc3F)ncnc2cc1OCC1CCN(C)CC1 [Zactima] | Positive | –
11 | COc1cccc2c1C(=O)c1c(O)c3c(c(O)c1C2=O)C[C@@](O)(C(=O)CO)C[C@@H]3O[C@H]1C[C@H](N)[C@H](O)[C@H](C)O1 [Doxorubicin] | Positive | –
12 | Cc1nc(Nc2ncc(C(=O)Nc3c(C)cccc3Cl)s2)cc(N2CCN(CCO)CC2)n1 [Sprycel, dasatinib] | Positive | mentioned in the prescribing information
